In publication PMC11923649, “Novel C-2 Aromatic Heterocycle-Substituted Triterpenoids Inhibit Hedgehog Signaling in GLI1 Overexpression Cancer Cells” (ACS Omega, 2025):

What was measured:
HCT 116 = assay: MTS cytotoxicity assay, 72 h, HCT 116; assay type: cell-based; conditions: Homo sapiens, HCT-116, 72 h
Description: (§1) Based on the preliminary results and tests of a larger library of known triterpenoids, a small set of 2-substituted lupane and 18α-oleanane derivatives was designed and synthesized. As the first step, the cytotoxic activity of the synthesized derivatives was assessed using an MTS assay following 72 h of treatment (Table 1). Selected cell lines A549 (lung adenocarcinoma) and DU-145 (prostate cancer) are both dependent on Hh signaling. In addition, K562 (chronic myelogenous leukemia) was included as a cell line sensitive to Hh inhibitors[32] and a type of hematological malignancy with active Hh signaling.[33] MRC-5 lung fibroblasts and BJ human skin fibroblasts cell lines were used to evaluate the toxicity against nontumor cells. Compounds were also tested using the standard panel of other cancer cell lines, as described in our earlier work (Table 1).[27]
(§2) The human prostate tumor-derived cell line DU145 was obtained from ATCC (American Type Culture Collection) and cultured in RPMI 1640 (Roswell Park Memorial Institute) medium supplemented with 10% (v/v) fetal bovine serum (FBS). Human prostate tumor-derived LNCaP cells were obtained from ATCC and cultured in RPMI 1640 medium supplemented with 10% FBS. The human nonsmall cell lung carcinoma (NSCLC)-derived cell line HOP-62 was obtained from the DSMZ (German Collection of Microorganisms and Cell Cultures) and cultured in RPMI 1640 medium supplemented with 10% FBS. The human nonsmall cell lung carcinoma-derived cell line NCI-H322 was obtained from ECACC (European Collection of Authenticated Cell Cultures) and cultured in RPMI 1640 medium supplemented with 10% FBS. The human nonsmall cell lung carcinoma-derived cell line NCI-H522 was obtained from ATCC and cultured in RPMI 1640 medium supplemented with 10% FBS. The human lung tumor-derived cell line A549 was obtained from ATCC and cultured in Dulbecco’s Modified Eagle’s Medium (DMEM) supplemented with 10% FBS. The human medulloblastoma-derived cell line DAOY was obtained from ATCC and cultured in Eagle’s Minimum Essential Medium (EMEM) supplemented with 10% FBS. The human glioblastoma-derived cell line T98G was obtained from ATCC and cultured in EMEM medium supplemented with 10% FBS, 1 mmol/L sodium pyruvate, and 1 mmol/L nonessential amino acid mixture. All the above-mentioned cell lines were cultured at 37 °C in an atmosphere of 5% CO2 with 95% humidity. The cytotoxicity MTS assays were performed using MTS (3-(4,5-dimethylthiazol-2-yl)-5-(3-carboxymethoxyphenyl)-2-(4-sulfophenyl)-2H-tetrazolium) tetrazolium salt. Briefly, cells were seeded in a 384-well transparent plate in a volume of 25 μL and a concentration of 15,000 cells/mL (DU145, LNCaP, HOP-62, A549, DAOY, T98G) or 30,000 cells/mL (NCI-H322, NCI-H522). The next day, cells were exposed to compounds in a concentration range of 50–0.0975 μmol/L (dilution factor 2) and cultured in the presence of the compounds for 72 h. After 72 h, 5 μL of MTS/phenazine methosulfate solution was pipetted into each well and incubation continued for 1–4 h. Finally, the absorbance at 490 nm was measured using an EnVision multifunctional modular reader (PerkinElmer). The IC50 value was determined using Dotmatics software.

HCT116 p53–/– = assay: MTS cytotoxicity assay, 72 h, HCT116 p53–/–; assay type: cell-based; conditions: Homo sapiens, HCT-116, 72 h
Description: as §1, §2

U2OS = assay: MTS cytotoxicity assay, 72 h, U2OS; assay type: cell-based; conditions: Homo sapiens
Description: as §1, §2

[1] = test system: K562 (chronic myelogenous leukemia); assay: MTS cytotoxicity assay, 72 h, K562; assay type: cell-based; conditions: Homo sapiens
Description: as §1, §2

[2] = test system: A549 (lung adenocarcinoma); assay: MTS cytotoxicity assay, 72 h, A549; assay type: cell-based; conditions: Homo sapiens, A549, 72 h
Description: as §1, §2

MRC-5 lung fibroblasts = assay: MTS cytotoxicity assay, 72 h, MRC-5 fibroblasts; assay type: cell-based, human; conditions: Homo sapiens, MRC5, 72 h, normal fibroblasts
Description: as §1, §2

CCRF-CEM = assay: MTS cytotoxicity assay, 72 h, CCRF-CEM; assay type: cell-based; conditions: for IC50: Homo sapiens, CCRF-CEM, 72 h, MTS
Description: as §1, §2

CEM-DNR = assay: MTS cytotoxicity assay, 72 h, CEM-DNR; assay type: cell-based; conditions: Homo sapiens
Description: as §1, with “1).[27] […]” for “1).[27]”

DU-145 (prostate cancer) = assay: MTS cytotoxicity assay, 72 h, DU-145; assay type: cell-based, human; conditions: Homo sapiens, DU-145, 72 h
Description: as §1, §2

K562-TAX = assay: MTS cytotoxicity assay, 72 h, K562-TAX; assay type: cell-based
Description: as §1, §2

[3] = test system: BJ human skin fibroblasts; assay: MTS cytotoxicity assay, 72 h, BJ fibroblasts; assay type: cell-based; conditions: Homo sapiens, Skin fibroblast, normal fibroblasts
Description: as §1, §2

[4] = CCRF-CEM vs average of BJ and MRC-5, full Table S1

Compound | IC50 (DU-145 (prostate cancer); full Table S1) | IC50 (CCRF-CEM; full Table S1) | IC50 (HCT 116; full Table S1) | IC50 (HCT116 p53–/–; full Table S1) | IC50 (U2OS; full Table S1) | IC50 ([1]; full Table S1) | IC50 ([2]; full Table S1) | IC50 (MRC-5 lung fibroblasts; full Table S1) | SI (selectivity index) (CCRF-CEM; [4]) | IC50 (CEM-DNR; full Table S1) | IC50 (K562-TAX; full Table S1) | IC50 ([3]; full Table S1) | other results
CC1(C)C(=O)C(c2cncc3ccccc23)=C[C@@]2(C)C1CC[C@]1(C)C2CCC2C3[C@H]4OC[C@@]3(CCC4(C)C)CC[C@]21C (stereo partly drawn) [Compound 4l, 2-(Isoquinolin-4-yl)-19β,28-epoxyolean-1-en-3-one] | 32.1 µM |  |  |  |  |  |  |  |  |  |  |  | IC50 (HCT 116; Table 1): > 50 µM; IC50 (HCT116 p53–/–; Table 1): > 50 µM; IC50 (U2OS; Table 1): > 50 µM; IC50 ([1]; Table 1): > 50 µM; IC50 ([2]; Table 1): > 50 µM; IC50 (MRC-5 lung fibroblasts; Table 1): > 50 µM; IC50 (CCRF-CEM; Table 1): > 50 µM; IC50 (CEM-DNR; Table 1): > 50 µM; IC50 (DU-145 (prostate cancer); Table 1): 32 µM; IC50 (K562-TAX; Table 1): > 50 µM; IC50 ([3]; Table 1): > 50 µM
CC1(C)C(=O)C(c2ccc3[nH]ccc3c2)=C[C@@]2(C)C1CC[C@]1(C)C2CCC2C3[C@H]4OC[C@@]3(CCC4(C)C)CC[C@]21C (stereo partly drawn) [Compound 4m, 2-(Indol-5-yl)-19β,28-epoxyolean-1-en-3-one] | 25.8 µM | 26.1 µM |  |  |  |  |  |  |  |  |  |  | IC50 (HCT 116; Table 1): > 50 µM; IC50 (HCT116 p53–/–; Table 1): > 50 µM; IC50 (U2OS; Table 1): > 50 µM; IC50 ([1]; Table 1): > 50 µM; IC50 ([2]; Table 1): > 50 µM; IC50 (MRC-5 lung fibroblasts; Table 1): > 50 µM; IC50 (CCRF-CEM; Table 1): 26 µM; SI (selectivity index) (CCRF-CEM; IC50 of CCRF-CEM line vs average of both fibroblasts (BJ and MRC-5), Table 1): >1.9; IC50 (CEM-DNR; Table 1): > 50 µM; IC50 (DU-145 (prostate cancer); Table 1): 26 µM; IC50 (K562-TAX; Table 1): > 50 µM; IC50 ([3]; Table 1): > 50 µM
C=C(C)[C@@H]1CC[C@]2(C(=O)OCc3ccccc3)CC[C@]3(C)C(CCC4[C@@]5(C)C=C(c6ccco6)C(=O)C(C)(C)C5CC[C@]43C)C12 (some centres unmarked) [Compound 10a, Benzyl 2-(2-Furanyl)-3-oxolupa-1,20(29)-dien-28-oate] | > 50 µM | > 50 µM | > 50 µM | > 50 µM | > 50 µM | > 50 µM | > 50 µM | > 50 µM | > 1.0 | > 50 µM | > 50 µM | > 50 µM | 
C=C(C)[C@@H]1CC[C@]2(C(=O)OCc3ccccc3)CC[C@]3(C)C(CCC4[C@@]5(C)C=C(c6ccoc6)C(=O)C(C)(C)C5CC[C@]43C)C12 (some centres unmarked) [Compound 10b, Benzyl 2-(3-Furanyl)-3-oxolupa-1,20(29)-dien-28-oate] | > 50 µM | > 50 µM | > 50 µM | > 50 µM | > 50 µM | > 50 µM | > 50 µM | > 50 µM | > 1.0 | > 50 µM | > 50 µM | > 50 µM | 
C=C(C)[C@@H]1CC[C@]2(C(=O)OCc3ccccc3)CC[C@]3(C)C(CCC4[C@@]5(C)C=C(c6cccs6)C(=O)C(C)(C)C5CC[C@]43C)C12 (some centres unmarked) [Compound 10c, Benzyl 2-(2-Thiophenyl)-3-oxolupa-1,20(29)-dien-28-oate] | > 50 µM | > 50 µM | > 50 µM | > 50 µM | > 50 µM | > 50 µM | > 50 µM | > 50 µM | > 1.0 | > 50 µM | > 50 µM | > 50 µM | 
C=C(C)[C@@H]1CC[C@]2(C(=O)OCc3ccccc3)CC[C@]3(C)C(CCC4[C@@]5(C)C=C(c6ccsc6)C(=O)C(C)(C)C5CC[C@]43C)C12 (some centres unmarked) [Compound 10d, Benzyl 2-(3-Thiophenyl)-3-oxolupa-1,20(29)-dien-28-oate] | > 50 µM | > 50 µM | > 50 µM | > 50 µM | > 50 µM | > 50 µM | > 50 µM | > 50 µM | > 1.0 | > 50 µM | > 50 µM | > 50 µM | 
C=C(C)[C@@H]1CC[C@]2(C(=O)OCc3ccccc3)CC[C@]3(C)C(CCC4[C@@]5(C)C=C(c6ccc(Cl)s6)C(=O)C(C)(C)C5CC[C@]43C)C12 (some centres unmarked) [Compound 10e] | > 50 µM | > 50 µM | > 50 µM | > 50 µM | > 50 µM | > 50 µM | > 50 µM | > 50 µM | > 1.0 | > 50 µM | > 50 µM | > 50 µM | 
C=C(C)[C@@H]1CC[C@]2(C(=O)OCc3ccccc3)CC[C@]3(C)C(CCC4[C@@]5(C)C=C(c6cccnc6)C(=O)C(C)(C)C5CC[C@]43C)C12 (some centres unmarked) [Compound 10g, Benzyl 2-(3-Pyridinyl)-3-oxolupa-1,20(29)-dien-28-oate] | > 50 µM | > 50 µM | > 50 µM | > 50 µM | > 50 µM | > 50 µM | > 50 µM | > 50 µM | > 1.0 | > 50 µM | > 50 µM | > 50 µM | 
C=C(C)[C@@H]1CC[C@]2(C(=O)OCc3ccccc3)CC[C@]3(C)C(CCC4[C@@]5(C)C=C(c6ccncc6)C(=O)C(C)(C)C5CC[C@]43C)C12 (some centres unmarked) [Compound 10h, Benzyl 2-(4-Pyridinyl)-3-oxolupa-1,20(29)-dien-28-oate] | > 50 µM | > 50 µM | > 50 µM | > 50 µM | > 50 µM | > 50 µM | > 50 µM | > 50 µM | > 1.0 | > 50 µM | > 50 µM | > 50 µM | 
C=C(C)[C@@H]1CC[C@]2(C(=O)OCc3ccccc3)CC[C@]3(C)C(CCC4[C@@]5(C)C=C(c6cncnc6)C(=O)C(C)(C)C5CC[C@]43C)C12 (some centres unmarked) [Compound 10i, Benzyl 2-(5-Pyrimidinyl)-3-oxolupa-1,20(29)-dien-28-oate] | > 50 µM | > 50 µM | > 50 µM | > 50 µM | > 50 µM | > 50 µM | > 50 µM | > 50 µM | > 1.0 | > 50 µM | > 50 µM | > 50 µM | 
C=C(C)[C@@H]1CC[C@]2(C(=O)OCc3ccccc3)CC[C@]3(C)C(CCC4[C@@]5(C)C=C(c6ccc7c(c6)OCCO7)C(=O)C(C)(C)C5CC[C@]43C)C12 (some centres unmarked) [Compound 10j, Benzyl 2-(1,4-Benzodioxan)-3-oxolupa-1,20(29)-dien-28-oate] | > 50 µM | > 50 µM | > 50 µM | > 50 µM | > 50 µM | > 50 µM | > 50 µM | > 50 µM | > 1.0 | > 50 µM | > 50 µM | > 50 µM | 
